According to patent US6337417B1, “N-phenyltetrahydrophthalamic acid derivatives, methods of producing same, and herbicides containing same as effective components” (Central Glass Co., Ltd., priority 1994, dated 2002):

Experiments:
Type in all cases: in vivo
Set-up in all cases: key: 5: completely killed; 4: seriously injured; 3: considerably injured; 2: somewhat injured; 1: slightly injured; 0: not injured (normally grown)
paddy rice = assay: Experiment 7 flooded soil treatment: injury to paddy rice; settings: evaluated 4 weeks after treatment
Excerpt: (§1) Paddy soil (clay loam) was put into a pot so as to have a surface area of 1/15500 ares. Uniformly mixed seeds of several kinds of weeds, viz., nobie (barnyardgrass, Echinochloa spp.), broad-leaved weeds, hotarui (bulrush, Scirpus juncoides) and tamagayatsuri (small-flowered umbrellaplant, Cyperus difformis), were sown in the surface layer of the soil in each pot, and then paddy rice seedlings at the two- or three-leaved stage were transplanted into each pot to a depth of 2 cm, and water was fed into each pot so as to provide a 3 cm deep water layer on the soil surface. After 3 days, in other words at the initial stage of germination of nobie (barnyardgrass, Echinochloa spp.), a predetermined amount of a selected compound obtained in a manner analogous to Example 14 in the form of diluted aqueous solution was dropped into the water layer in each pot. After that, the pots were kept in a glass chamber to allow the paddy rice and the weeds to grow, and after the lapse of 4 weeks from the treatment with the selected compounds, the herbicidal effects and the degree of injury to the paddy rice were evaluated. The evaluation of the herbicidal effects was similarly conducted as that of Experiment 1.

[1] = tested on: nobie (barnyardgrass, Echinochloa spp.); assay: Experiment 7 flooded soil treatment: nobie; settings: evaluated 4 weeks after treatment
Excerpt: as §1

broad-leaved weeds = assay: Experiment 7 flooded soil treatment: broad-leaved weeds; settings: evaluated 4 weeks after treatment
Excerpt: as §1

[2] = tested on: hotarui (bulrush, Scirpus juncoides); assay: Experiment 7 flooded soil treatment: hotarui; settings: evaluated 4 weeks after treatment
Excerpt: as §1

[3] = tested on: tamagayatsuri (small-flowered umbrellaplant, Cyperus difformis); assay: Experiment 7 flooded soil treatment: tamagayatsuri; settings: evaluated 4 weeks after treatment
Excerpt: as §1

rice = assay: Experiment 8 foliage treatment: rice; settings: foliage spray of wettable powder suspension, evaluated 4 weeks after treatment
Description: (§2) Upon seedling stage (two- or three-leaved stage) of rice, cockspur (Panicum crus-galli), garden radish, aobiyu (slender amaranth, Amaranthus viridis) and mehishiba (henry crabgrass, Digitaria cliaris) which were grown on a cultivated soil put in pots of 1/15500 ares, a selected compound obtained in a manner analogous to Example 14, in suspended wettable powder, was sprayed to each plant. After that, the pots were kept in a glass chamber to allow each plant to grow, and after the lapse of 4 weeks from the treatment with the selected compounds the herbicidal effects were evaluated. The evaluation of the herbicidal effects was similarly conducted as to that of Experiment 1.

[4] = tested on: cockspur (Panicum crus-galli); assay: Experiment 8 foliage treatment: cockspur; settings: foliage spray of wettable powder suspension, evaluated 4 weeks after treatment
Description: as §2

garden radish = assay: Experiment 8 foliage treatment: garden radish; settings: foliage spray of wettable powder suspension, evaluated 4 weeks after treatment
Description: as §2

[5] = tested on: aobiyu (slender amaranth, Amaranthus viridis); assay: Experiment 8 foliage treatment: aobiyu; settings: foliage spray of wettable powder suspension, evaluated 4 weeks after treatment
Description: as §2

[6] = tested on: mehishiba (henry crabgrass, Digitaria cliaris); assay: Experiment 8 foliage treatment: mehishiba; settings: foliage spray of wettable powder suspension, evaluated 4 weeks after treatment
Description: as §2

Row | Compound | Injury of Paddy (paddy rice; 6.25 g/10a) | Injury of Paddy (paddy rice; 12.5 g/10a) | Herbicidal Effect nobie ([1]; 6.25 g/10a) | Herbicidal Effect nobie ([1]; 12.5 g/10a) | Herbicidal Effect broad-leaved weed (broad-leaved weeds; 6.25 g/10a) | Herbicidal Effect broad-leaved weed (broad-leaved weeds; 12.5 g/10a) | Herbicidal Effect hotarui ([2]; 6.25 g/10a) | Herbicidal Effect hotarui ([2]; 12.5 g/10a) | Herbicidal Effect tamagayatsuri ([3]; 6.25 g/10a) | Herbicidal Effect tamagayatsuri ([3]; 12.5 g/10a) | Herbicidal Effect rice (rice; 40 g/10a) | Herbicidal Effect rice (rice; 80 g/10a) | Herbicidal Effect cockspur ([4]; 40 g/10a) | Herbicidal Effect cockspur ([4]; 80 g/10a) | Herbicidal Effect garden radish (garden radish; 40 g/10a) | Herbicidal Effect garden radish (garden radish; 80 g/10a) | Herbicidal Effect aobiyu ([5]; 40 g/10a) | Herbicidal Effect aobiyu ([5]; 80 g/10a) | Herbicidal Effect mehishiba ([6]; 40 g/10a) | Herbicidal Effect mehishiba ([6]; 80 g/10a)
1 | C#CC(C)Oc1cc(N(C(=O)C2=C(C(=O)OC)CCCC2)C(=O)c2ccc(C)s2)c(F)cc1Cl (stereo not drawn) [compound 96] | 0 | 0.5 | 5 | 5 | 5 | 5 | 4 | 4 | 5 | 5 | 1 | 1 | 1 | 1 | 5 | 5 | 5 | 5 | 1 | 1
2 | COC(=O)COc1cc(N(C(=O)C2=C(C(=O)OC)CCCC2)C(=O)c2cccs2)c(F)cc1Cl [compound 99] | 0 | 0 | 5 | 5 | 5 | 5 | 4 | 4 | 4 | 5 | 1 | 1 | 1 | 1 | 4 | 4 | 4 | 5 | 1 | 1
3 | C#CC(C)Oc1cc(N(C(=O)C2=C(C(=O)OCCC)CCCC2)C(=O)c2cccs2)c(F)cc1Cl (stereo not drawn) [compound 92] | 0 | 0 | 5 | 5 | 5 | 5 | 4 | 4 | 4 | 5 | 1 | 1 | 1 | 1 | 4 | 4 | 5 | 5 | 1 | 1
